Measured values from patent publication US8063071B2 (GlaxoSmithKline, LLC, priority 2007, dated 2011).
Structures can show the parent of a compound that is named as a salt.

Tests used:
[1] = tested on: human monocyte stimulated cytokine production (TNF-α); assay: Monocyte assay (LPS-stimulated TNF-α production); type: cell-based; details: for IC50: 24 h, 200 ng/mL LPS, TNF-α by ELISA; for inhibition at 0.3 µM: read-out: inhibition at 300 nM in the monocyte assay
In short: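 Human CD14+ monocytes were purified from blood and plated at 1×10^6 cells/mL in RPMI 1640 with 10% FBS. Compound was added 30 min before stimulation with 200 ng/mL LPS (0.1% DMSO final), followed by 24 hrs at 37 C. Supernatant TNF-α was measured by ELISA, and viability by trypan blue exclusion.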

[2] = molecular target: T1, Recombinant human IKKβ (residues 1-737) (Homo sapiens, UniProt O14920); assay: IKK2 assay (TR-FRET); type: biochemical; details: ATP 1 μM final, read-out: pIC50 against IKK2 (converted)
T1 construct: Recombinant human IKKβ (residues 1-737); GST (C); made in house
T1 sequence (O14920 1-737): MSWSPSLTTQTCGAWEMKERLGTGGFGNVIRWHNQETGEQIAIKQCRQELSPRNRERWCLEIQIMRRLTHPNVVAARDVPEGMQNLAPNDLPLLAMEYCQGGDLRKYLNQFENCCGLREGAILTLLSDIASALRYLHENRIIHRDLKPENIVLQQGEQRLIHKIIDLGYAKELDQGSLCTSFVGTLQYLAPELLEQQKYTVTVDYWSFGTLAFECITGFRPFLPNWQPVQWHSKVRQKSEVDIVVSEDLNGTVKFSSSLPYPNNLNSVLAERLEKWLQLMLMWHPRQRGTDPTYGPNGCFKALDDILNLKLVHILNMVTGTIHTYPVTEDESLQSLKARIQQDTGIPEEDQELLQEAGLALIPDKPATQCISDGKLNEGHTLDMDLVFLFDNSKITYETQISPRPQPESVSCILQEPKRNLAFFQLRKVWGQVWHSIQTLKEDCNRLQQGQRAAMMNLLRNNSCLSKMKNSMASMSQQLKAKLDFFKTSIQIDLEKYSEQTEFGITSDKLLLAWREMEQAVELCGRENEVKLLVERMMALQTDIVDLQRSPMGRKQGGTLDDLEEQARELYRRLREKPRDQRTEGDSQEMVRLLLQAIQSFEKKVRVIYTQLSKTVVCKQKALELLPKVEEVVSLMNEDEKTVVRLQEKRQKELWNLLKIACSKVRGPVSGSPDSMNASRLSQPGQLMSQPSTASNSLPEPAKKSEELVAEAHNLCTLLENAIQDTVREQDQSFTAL
In short: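 Baculovirus-expressed C-terminal GST-tagged IKKβ (0.5-5 nM final) in HEPES pH 7.4, MgCl2, CHAPS, DTT, BSA with 1.7% DMSO; 25 nM GST-IB substrate and 1 μM ATP, 15 min at room temperature. EDTA stop; phospho-Ser32/36 detected by Eu-antibody/APC-anti-GST TR-FRET, 665/620 nm ratio.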

Row | Structure (SMILES) | IC50 [1] | IC50 [2] | inhibition at 0.3 µM [1]
1 | CCS(=O)(=O)N1CCC(c2c[nH]c3c(C(N)=O)cc(-c4cnn(CCN5CCC(N(C)C)CC5)c4)cc23)CC1 [Example 50, 5-(1-{2-[4-(dimethylamino)-1-piperidinyl]ethyl}-1H-pyrazol-4-yl)-3-[1-(ethylsulfonyl)-4-piperidinyl]-1H-indole-7-carboxamide trifluoroacetate] | > 1 µM | ≤ 10 µM | 
2 | CCS(=O)(=O)N1CCC(c2c[nH]c3c(C(N)=O)cc(-c4csc(CN(C)C)n4)cc23)CC1 [Example 355, 5-{2-[(dimethylamino)methyl]-1,3-thiazol-4-yl}-3-[1-(ethylsulfonyl)-4-piperidinyl]-1H-indole-7-carboxamide trifluoroacetate] |  | ≤ 10 µM | 0 to 60%
3 | CCCN(CCC)CCc1cccc(-c2cc(C(N)=O)c3[nH]cc(C4CCN(S(=O)(=O)CC)CC4)c3c2)c1 [Example 349, 5-{3-[2-(dipropylamino)ethyl]phenyl}-3-[1-(ethylsulfonyl)-4-piperidinyl]-1H-indole-7-carboxamide trifluoroacetate] |  | ≤ 10 µM | 0 to 60%
4 | CCCNCCc1cccc(-c2cc(C(N)=O)c3[nH]cc(C4CCN(S(=O)(=O)CC)CC4)c3c2)c1 [Example 347, 3-[1-(ethylsulfonyl)-4-piperidinyl]-5-{3-[2-(propylamino)ethyl]phenyl}-1H-indole-7-carboxamide trifluoroacetate] |  | ≤ 10 µM | 0 to 60%
5 | CCS(=O)(=O)N1CCC(c2c[nH]c3c(C(N)=O)cc(-c4ccc(CNCCOC)s4)cc23)CC1 [Example 188, 3-[1-(ethylsulfonyl)-4-piperidinyl]-5-[5-({[2-(methyloxy)ethyl]amino}methyl)-2-thienyl]-1H-indole-7-carboxamide] |  | ≤ 10 µM | 0 to 60%
6 | CCS(=O)(=O)N1CCC(c2c[nH]c3c(C(N)=O)cc(-c4cccc(CCNCC(C)C)c4)cc23)CC1 [Example 345, 3-[1-(ethylsulfonyl)-4-piperidinyl]-5-(3-{2-[(2-methylpropyl)amino]ethyl}phenyl)-1H-indole-7-carboxamide trifluoroacetate] |  | ≤ 10 µM | 0 to 60%
7 | CCS(=O)(=O)N1CCC(c2c[nH]c3c(C(N)=O)cc(-c4ncc(CN5CCCC5)s4)cc23)CC1 [Example 249, 3-[1-(ethylsulfonyl)-4-piperidinyl]-5-[5-(1-pyrrolidinylmethyl)-1,3-thiazol-2-yl]-1H-indole-7-carboxamide trifluoroacetate] | > 1 µM | ≤ 10 µM | 
8 | CCS(=O)(=O)N1CCC(c2c[nH]c3c(C(N)=O)cc(-c4cc(CNCC5CC5)ccc4F)cc23)CC1 [Example 339, 5-(5-{[(cyclopropylmethyl)amino]methyl}-2-fluorophenyl)-3-[1-(ethylsulfonyl)-4-piperidinyl]-1H-indole-7-carboxamide trifluoroacetate] | > 1 µM | ≤ 10 µM | 
9 | CCS(=O)(=O)N1CCC(c2c[nH]c3c(C(N)=O)cc(-c4csc(CN5CCCC5C(C)C)c4)cc23)CC1 (stereo not shown) [Example 94, 3-[1-(ethylsulfonyl)-4-piperidinyl]-5-(5-{[2-(1-methylethyl)-1-pyrrolidinyl]methyl}-3-thienyl)-1H-indole-7-carboxamide] |  | ≤ 10 µM | 0 to 60%
10 | CCS(=O)(=O)N1CCC(c2c[nH]c3c(C(N)=O)cc(-c4csc(CN5CCCC5C)c4)cc23)CC1 (stereo not shown) [Example 104, 3-[1-(ethylsulfonyl)-4-piperidinyl]-5-{5-[(2-methyl-1-pyrrolidinyl)methyl]-3-thienyl}-1H-indole-7-carboxamide trifluoroacetate] | ≤ 1.5 µM | ≤ 10 µM | 

Second part, led by results:

Row | IC50 [1] | IC50 [2] | Structure (SMILES) | inhibition at 0.3 µM [1]
11 | ≤ 1.5 µM | ≤ 10 µM | CCS(=O)(=O)N1CCC(c2c[nH]c3c(C(N)=O)cc(-c4cccc(CNCc5ccc(O)c(O)c5)c4)cc23)CC1 [Example 16, 5-[3-({[(3,4-dihydroxyphenyl)methyl]amino}methyl)phenyl]-3-[1-(ethylsulfonyl)-4-piperidinyl]-1H-indole-7-carboxamide] | 
12 | ≤ 1.5 µM | ≤ 10 µM | CCS(=O)(=O)N1CCC(c2c[nH]c3c(C(N)=O)cc(-c4cc(F)cc(CNCC5CC5)c4)cc23)CC1 [Example 322, 5-(3-{[(cyclopropylmethyl)amino]methyl}-5-fluorophenyl)-3-[1-(ethylsulfonyl)-4-piperidinyl]-1H-indole-7-carboxamide trifluoroacetate] | 
13 | ≤ 1.5 µM | ≤ 10 µM | CC(C)S(=O)(=O)N1CCC(c2c[nH]c3c(C(N)=O)cc(-c4csc(CN(C)CCO)c4)cc23)CC1 [Example 397, 5-(5-{[(2-hydroxyethyl)(methyl)amino]methyl}-3-thienyl)-3-{1-[(1-methylethyl)sulfonyl]-4-piperidinyl}-1H-indole-7-carboxamide] | 
14 | ≤ 1.5 µM | ≤ 10 µM | CCC(C)N(C)Cc1cc(-c2cc(C(N)=O)c3[nH]cc(C4CCN(S(=O)(=O)CC)CC4)c3c2)cs1 (stereo not shown) [Example 402, 3-[1-(ethylsulfonyl)-4-piperidinyl]-5-(5-{[methyl(1-methylpropyl)amino]methyl}-3-thienyl)-1H-indole-7-carboxamide] | 
15 | ≤ 1.5 µM | ≤ 10 µM | CCS(=O)(=O)N1CCC(c2c[nH]c3c(C(N)=O)cc(-c4cccc(CN(C)C)c4)cc23)CC1 [Example 64, 5-{3-[(dimethylamino)methyl]phenyl}-3-[1-(ethylsulfonyl)-4-piperidinyl]-1H-indole-7-carboxamide] | 
16 | ≤ 1.5 µM | ≤ 10 µM | CCS(=O)(=O)N1CCC(c2c[nH]c3c(C(N)=O)cc(-c4csc(CNC5CCC5)c4)cc23)CC1 [Example 110, 5-{5-[(cyclobutylamino)methyl]-3-thienyl}-3-[1-(ethylsulfonyl)-4-piperidinyl]-1H-indole-7-carboxamide trifluoroacetate] | 
17 | ≤ 1.5 µM | ≤ 10 µM | CCC(c1cc(-c2cc(C(N)=O)c3[nH]cc(C4CCN(S(=O)(=O)CC)CC4)c3c2)cs1)N1CCCC1 (stereo not shown) [Example 219, 3-[1-(ethylsulfonyl)-4-piperidinyl]-5-{5-[1-(1-pyrrolidinyl)propyl]-3-thienyl}-1H-indole-7-carboxamide trifluoroacetate] | 
18 | ≤ 1.5 µM | ≤ 10 µM | CCS(=O)(=O)N1CCC(c2c[nH]c3c(C(N)=O)cc(-c4cccc(CNS(=O)(=O)c5ccc(F)cc5)c4)cc23)CC1 [Example 380, 3-[1-(ethylsulfonyl)-4-piperidinyl]-5-[3-({[(4-fluorophenyl)sulfonyl]amino}methyl)phenyl]-1H-indole-7-carboxamide] | 
19 | ≤ 1.5 µM | ≤ 10 µM | CCS(=O)(=O)N1CCC(c2c[nH]c3c(C(N)=O)cc(-c4cccc(C(C)NCC(C)C)c4)cc23)CC1 (stereo not shown) [Example 294, 3-[1-(ethylsulfonyl)-4-piperidinyl]-5-(3-{1-[(2-methylpropyl)amino]ethyl}phenyl)-1H-indole-7-carboxamide trifluoroacetate] | 
20 | ≤ 1.5 µM | ≤ 10 µM | CCS(=O)(=O)N1CCC(c2c[nH]c3c(C(N)=O)cc(-c4cccc(CNS(=O)(=O)c5c(C)cccc5Cl)c4)cc23)CC1 [Example 376, 5-[3-({[(2-chloro-6-methylphenyl)sulfonyl]amino}methyl)phenyl]-3-[1-(ethylsulfonyl)-4-piperidinyl]-1H-indole-7-carboxamide] | 
21 | ≤ 1.5 µM | ≤ 10 µM | CCN(CC)Cc1cc(-c2cc(C(N)=O)c3[nH]cc(C4CCN(S(=O)(=O)CC)CC4)c3c2)cs1 [Example 107, 5-{5-[(diethylamino)methyl]-3-thienyl}-3-[1-(ethylsulfonyl)-4-piperidinyl]-1H-indole-7-carboxamide trifluoroacetate] | 
22 | ≤ 1.5 µM | ≤ 10 µM | CCS(=O)(=O)N1CCC(c2c[nH]c3c(C(N)=O)cc(-c4csc(CN(C)Cc5ccncc5)c4)cc23)CC1 [Example 78, 3-[1-(ethylsulfonyl)-4-piperidinyl]-5-(5-{[methyl(4-pyridinylmethyl)amino]methyl}-3-thienyl)-1H-indole-7-carboxamide trifluoroacetate] | 
23 | ≤ 1.5 µM | ≤ 10 µM | CCS(=O)(=O)N1CCC(c2c[nH]c3c(C(N)=O)cc(-c4cccc(CNCc5ccc(C)o5)c4)cc23)CC1 [Example 305, 3-[1-(ethylsulfonyl)-4-piperidinyl]-5-[3-({[(5-methyl-2-furanyl)methyl]amino}methyl)phenyl]-1H-indole-7-carboxamide trifluoroacetate] | 
